What was measured:
[1] = Spectroscopic properties of the BDM library (absorbance and emission maxima); type: physicochemical
[2] = Quantum yield measurements; type: physicochemical; details: referred to Rhodamine B in EtOH, excitation 510 nm, emission integrated 540-800 nm
Method: Quantum yields were calculated by measuring the integrated emission area of the fluorescent spectra, and referring them to the area measured for Rhodamine B in EtOH after excitation at 510 nm (ΦRho-B=0.70). Quantum yields for the BDM products were then calculated using equation below, where F represents the area of fluorescent emission, n is reflective index of the solvent, and Abs is absorbance at excitation wavelength selected for standards and samples. Emission was integrated from 540 nm to 800 nm.

| Compound | λmax (ABS) [1] [nm] | λmax (EM) [1] [nm] | φ (quantum yield) [2] |
| --- | --- | --- | --- |
| COc1c(Br)cc(Br)cc1/C=C/C1=[N+]2C(=C(CCN)c3cccn3[B-]2(F)F)C(C)=C1 [BDM-241] | 560 | 576 | 0.32 |
| CC1=CC(/C=C/c2c(C)cccc2C)=[N+]2C1=C(CCN)c1cccn1[B-]2(F)F [BDM-243] | 543 | 565 | 0.87 |
| COc1ccc(F)c(/C=C/C2=[N+]3C(=C(CCN)c4cccn4[B-]3(F)F)C(C)=C2)c1 [BDM-245] | 555 | 563 | 0.32 |
| CC1=CC(/C=C/c2c(Cl)ccc(C)c2F)=[N+]2C1=C(CCN)c1cccn1[B-]2(F)F [BDM-246] | 554 | 566 | 0.17 |
| COc1cc(OC)c(/C=C/C2=[N+]3C(=C(CCN)c4cccn4[B-]3(F)F)C(C)=C2)cc1Br [BDM-247] | 571 | 599 | 0.54 |
| CC1=CC(/C=C/c2ccc(C)c(F)c2)=[N+]2C1=C(CCN)c1cccn1[B-]2(F)F [BDM-249] | 557 | 568 | 0.24 |
| CCc1ccccc1/C=C/C1=[N+]2C(=C(CCN)c3cccn3[B-]2(F)F)C(C)=C1 [BDM-251] | 556 | 572 | 0.22 |
| CCc1ccc(/C=C/C2=[N+]3C(=C(CCN)c4cccn4[B-]3(F)F)C(C)=C2)cc1[N+](=O)[O-] [BDM-252] | 556 | 569 | 0.08 |
| COc1cc(/C=C/C2=[N+]3C(=C(CCN)c4cccn4[B-]3(F)F)C(C)=C2)cc(Br)c1OC [BDM-259] | 559 | 573 | 0.35 |
| COc1ccc(/C=C/C2=[N+]3C(=C(CCN)c4cccn4[B-]3(F)F)C(C)=C2)cc1Br [BDM-260] | 564 | 582 | 0.05 |
| CCCCc1ccc(/C=C/C2=[N+]3C(=C(CCN)c4cccn4[B-]3(F)F)C(C)=C2)cc1 [BDM-263] | 559 | 571 | 0.26 |
| CC1=CC(/C=C/c2ccc(C)cc2Br)=[N+]2C1=C(CCN)c1cccn1[B-]2(F)F [BDM-267] | 558 | 573 | 0.21 |
| COc1ccc(/C=C/C2=[N+]3C(=C(CCN)c4cccn4[B-]3(F)F)C(C)=C2)cc1Cl [BDM-274] | 562 | 577 | 0.46 |
| COc1cc(Cl)cc(/C=C/C2=[N+]3C(=C(CCN)c4cccn4[B-]3(F)F)C(C)=C2)c1O [BDM-275] | 562 | – | 0.05 |
| CC1=CC(/C=C/c2ccc(Oc3ccc(Cl)cc3)cc2)=[N+]2C1=C(CCN)c1cccn1[B-]2(F)F [BDM-277] | 559 | 574 | 0.59 |
| COc1cccc(/C=C/C2=[N+]3C(=C(CCN)c4cccn4[B-]3(F)F)C(C)=C2)c1Cl [BDM-281] | 554 | 567 | 0.28 |
| COc1cc(Cl)cc(/C=C/C2=[N+]3C(=C(CCN)c4cccn4[B-]3(F)F)C(C)=C2)c1OC [BDM-282] | 558 | 565 | 0.19 |
| CC1=CC(/C=C/c2cccc(O)c2Cl)=[N+]2C1=C(CCN)c1cccn1[B-]2(F)F [BDM-283] | 556 | 567 | 0.15 |
| CC1=CC(/C=C/c2ccc(-c3cccc(Cl)c3)o2)=[N+]2C1=C(CCN)c1cccn1[B-]2(F)F [BDM-284] | 594 | 622 | 0.03 |
| CC1=CC(/C=C/c2c(C)cccc2Cl)=[N+]2C1=C(CCN)c1cccn1[B-]2(F)F [BDM-285] | 544 | 561 | 0.51 |
| CC1=CC(/C=C/c2ccc(C)c(Cl)c2)=[N+]2C1=C(CCN)c1cccn1[B-]2(F)F [BDM-289] | 559 | 570 | 0.26 |
| CC1=CC(/C=C/c2ccc(Oc3cccc(Cl)c3)cc2)=[N+]2C1=C(CCN)c1cccn1[B-]2(F)F [BDM-290] | 558 | 574 | 0.36 |
| COc1cccc(Oc2ccc(/C=C/C3=[N+]4C(=C(CCN)c5cccn5[B-]4(F)F)C(C)=C3)cc2)c1 [BDM-298] | 559 | 568 | 0.32 |
| CC1=CC(/C=C/c2ccc(Oc3ccc(Cl)c(Cl)c3)cc2)=[N+]2C1=C(CCN)c1cccn1[B-]2(F)F [BDM-299] | 555 | 563 | 0.27 |

| Compound | λmax (ABS) [1] [nm] | λmax (EM) [1] [nm] | φ (quantum yield) [2] |
| --- | --- | --- | --- |
| CC1=CC(/C=C/c2ccc(Oc3ccc(C)cc3)cc2)=[N+]2C1=C(CCN)c1cccn1[B-]2(F)F [BDM-300] | 562 | 579 | 0.44 |
| COc1cc2ccccc2c(/C=C/C2=[N+]3C(=C(CCN)c4cccn4[B-]3(F)F)C(C)=C2)c1OC [BDM-301] | 563 | 586 | 0.41 |
| CC1=CC(/C=C/c2cccc(I)c2)=[N+]2C1=C(CCN)c1cccn1[B-]2(F)F [BDM-303] | 555 | 566 | 0.31 |
| COc1cc(F)c(/C=C/C2=[N+]3C(=C(CCN)c4cccn4[B-]3(F)F)C(C)=C2)cc1OC [BDM-305] | 567 | 587 | 0.25 |
| COc1cc(/C=C/C2=[N+]3C(=C(CCN)c4cccn4[B-]3(F)F)C(C)=C2)cc(O)c1OC [BDM-307] | 564 | 580 | 0.07 |
| CC1=CC(/C=C/c2ccc(Oc3cc(Cl)cc(Cl)c3)cc2)=[N+]2C1=C(CCN)c1cccn1[B-]2(F)F [BDM-308] | 556 | 567 | 0.19 |
| COc1ccc(/C=C/C2=[N+]3C(=C(CCN)c4cccn4[B-]3(F)F)C(C)=C2)c(C)c1C [BDM-310] | 566 | 600 | 0.42 |
| CC1=CC(/C=C/c2ccc(F)c(Oc3ccccc3)c2)=[N+]2C1=C(CCN)c1cccn1[B-]2(F)F [BDM-311] | 556 | 565 | 0.21 |
| COc1cc(/C=C/C2=[N+]3C(=C(CCN)c4cccn4[B-]3(F)F)C(C)=C2)ccc1F [BDM-312] | 557 | 568 | 0.18 |
| COc1ccc(/C=C/C2=[N+]3C(=C(CCN)c4cccn4[B-]3(F)F)C(C)=C2)cc1F [BDM-314] | 556 | 570 | 0.10 |
| CCOc1ccc(/C=C/C2=[N+]3C(=C(CCN)c4cccn4[B-]3(F)F)C(C)=C2)c(OCC)c1 [BDM-316] | 572 | 610 | 0.46 |
| CC1=CC(/C=C/c2cc(F)ccc2O)=[N+]2C1=C(CCN)c1cccn1[B-]2(F)F [BDM-318] | 563 | 576 | 0.11 |
| CCOc1c(/C=C/C2=[N+]3C(=C(CCN)c4cccn4[B-]3(F)F)C(C)=C2)cccc1OC [BDM-320] | 558 | 569 | 0.21 |
| CC1=CC(/C=C/c2ccc(Oc3ccc(F)cc3)cc2)=[N+]2C1=C(CCN)c1cccn1[B-]2(F)F [BDM-322] | 559 | 577 | 0.15 |
| CCOc1cccc(/C=C/C2=[N+]3C(=C(CCN)c4cccn4[B-]3(F)F)C(C)=C2)c1 [BDM-323] | 556 | 570 | 0.44 |
| COc1c(/C=C/C2=[N+]3C(=C(CCN)c4cccn4[B-]3(F)F)C(C)=C2)cc(C(C)(C)C)cc1C(C)(C)C [BDM-325] | 557 | 573 | 0.47 |
| CC1=CC(/C=C/c2ccc(OC(F)F)cc2)=[N+]2C1=C(CCN)c1cccn1[B-]2(F)F [BDM-326] | 554 | 565 | 0.71 |
| CC1=CC(/C=C/c2cc(OCc3ccccc3)cc(OCc3ccccc3)c2)=[N+]2C1=C(CCN)c1cccn1[B-]2(F)F [BDM-331] | 554 | 566 | 0.65 |
| CC1=CC(/C=C/c2ccc3c(c2)OC(F)(F)O3)=[N+]2C1=C(CCN)c1cccn1[B-]2(F)F [BDM-332] | 552 | 562 | 0.61 |
| CSc1ccccc1/C=C/C1=[N+]2C(=C(CCN)c3cccn3[B-]2(F)F)C(C)=C1 [BDM-333] | 557 | 575 | 0.30 |
| COc1ccc(/C=C/C2=[N+]3C(=C(CCN)c4cccn4[B-]3(F)F)C(C)=C2)cc1C [BDM-335] | 565 | 591 | 0.78 |
| CCOc1ccccc1/C=C/C1=[N+]2C(=C(CCN)c3cccn3[B-]2(F)F)C(C)=C1 [BDM-336] | 560 | 577 | 0.58 |
| CC1=CC(/C=C/c2c3ccccc3c(C)c3ccccc23)=[N+]2C1=C(CCN)c1cccn1[B-]2(F)F [BDM-340] | 534 | 541 | 0.11 |
| CC1=CC(/C=C/c2ccccc2Oc2ccc(F)cc2)=[N+]2C1=C(CCN)c1cccn1[B-]2(F)F [BDM-341] | 556 | 570 | 0.37 |

From US9267949B2, “Alkylamino BODIPY dyes as selective fluorescent probes for proteins and mouse embryonic stem cells” (National University of Singapore, priority 2011, dated 2016)
